Patent publication US20230271969A1, “NITROGEN-CONTAINING FUSED RING DERIVATIVE INHIBITOR, PREPARATION METHOD THEREFOR AND USE THEREOF” (Shanghai Hansoh Biomedical Co., Ltd., priority 2020, published 2023)

Columns and labels:
NK3 receptors [1] = molecular target: T1, NK3 receptors (Homo sapiens, UniProt P29371); test: Calcium ion fluidity (FLIPR) in cells with stable expression of NK3 receptors; format: cell-based; conditions: calcium signal, antagonist mode, read-out: NK3R IC50 (nM) FLIPR
T1 construct: expressed in transfected cells
T1 sequence (P29371 1-465): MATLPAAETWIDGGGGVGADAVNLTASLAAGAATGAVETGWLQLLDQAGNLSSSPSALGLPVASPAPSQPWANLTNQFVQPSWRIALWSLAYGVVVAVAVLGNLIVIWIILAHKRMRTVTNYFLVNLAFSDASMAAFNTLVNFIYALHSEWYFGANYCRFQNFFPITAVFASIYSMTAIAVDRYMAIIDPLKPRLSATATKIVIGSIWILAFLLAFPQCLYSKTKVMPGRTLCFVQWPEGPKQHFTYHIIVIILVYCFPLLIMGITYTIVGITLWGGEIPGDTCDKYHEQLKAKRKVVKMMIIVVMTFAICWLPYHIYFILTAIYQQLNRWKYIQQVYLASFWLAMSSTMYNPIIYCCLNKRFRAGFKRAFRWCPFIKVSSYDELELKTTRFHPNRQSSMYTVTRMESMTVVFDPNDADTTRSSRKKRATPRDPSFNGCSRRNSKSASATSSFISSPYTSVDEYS

NK3 receptors [2] = molecular target: T1, NK3 receptors; test: Antagonism of IP1 in HEK293 cells with stable expression of NK3; format: cell-based; conditions: agonist Senktide 3 nM, read-out: NK3R IC50 (nM) IP1
[3] = system: luteinizing hormone (LH) content in plasma; test: Luteinizing hormone (LH) content in plasma of bilateral ovariectomy (OVX) rats; format: in vivo; conditions: oral 30 mg/kg, plasma LH 0-8 h
Text: Test Example 5. Effect of the Compounds of the Present Invention on Luteindzing Hormone (LH) Content in Plasma of Bilateral Ovariectomy (OVX) Rats
The objective of this test example was to determine the effect of the compounds on luteinizing hormone (LH) in plasma of bilateral ovarnectomy (OVX) rats.
10-Week-old female bilateral ovariectomy SD rats were purchased from Beijing Vital River Laboratory Animal Technology Co., Ltd. The animals were housed in a SPF grade animal facility with 5 SD rats per cage. The cages, bedding, feed and water were disinfected at high temperatures before use. All animals had free access to food and water.
Drug administration by groups: 10-Week-old female SD rats were subjected to bilateral ovariectomy and used in experiments after 3 weeks. Each SD rat was fasted overnight before the experiment, and then randomly divided into groups (3 rats per group) before the drug administration. Different test compounds were administered orally to each drug administration group at a dose of 30 mg/kg and a volume of 10 mL/kg.
Sample collection: 0.2-0.3 mL of whole blood of the SD rats in each group was collected at 0, 0.5, 1, 2, 4, 8 hours before and after the drug administration, and placed in EDTA-K2 tubes. The tubes were inverted and mixed well, and centrifuged at 4° C. at 5,000 rpm for 5 min. Then the plasma was separated and stored in an ultra-low temperature freezer (−80±10° C.).
Sample detection: All reagents, samples and ELISA plates were equilibrated at room temperature (20-25° C.) for at least 30 min. The sample was thawed, vortexed and centrifuged for use. The standard curve was prepared with Assay buffer C according to the concentration sequence of 10, 5, 2.5, 1.25, 0.625, 0.313 and 0. The sample was diluted by two folds with Sample dilution buffer G and left to stand at room temperature for 10 min. […] The OD values of each well was read at a wavelength of 450 nm with a microplate reader.
The standard curve was plotted by using Graphpad, and the concentration of the sample was calculated. […]

[2H]c1cc(C(=O)N2CCn3c(-c4nc5cc(F)c(F)cc5s4)nnc3[C@H]2C)ccc1F [Example 62]
IC50 (NK3 receptors [1]): 73.6 nM
IC50 (NK3 receptors [2]): 92.3 nM
ΣAUC(ΔLH/LH · h, Mean ± SD) [3]: −1.77 ± 0.42 ΔLH/LH · h

[2H]c1cc(C(=O)N2CCn3c(-c4nc(Cl)ns4)nnc3[C@H]2C)ccc1Cl [Example 73, (R)-(3-(3-Chloro-1,2,4-thiadiazol-5-yl)-8-methyl-5,6-dihydro-[1,2,4]triazolo[4,3-a]pyrazin-7(8H)-yl)(4-chlorophenyl-3-d)methanone]
IC50 (NK3 receptors [1]): 267 nM
ΣAUC(ΔLH/LH · h, Mean ± SD) [3]: −2.04 ± 1.36 ΔLH/LH · h
